Data taken from patent US11642413B2, “Compounds for degrading Tau protein aggregates and uses thereof” (Aprinoia Therapeutics Limited, priority 2019, dated 2023).

Biological target: Tau aggregates in P301L-Tau-FL-GFP HEK293 cells (Homo sapiens (Human), UniProt P10636, P301L)
Assay: Tau degradation assay (APNmAb005 ELISA-based Tau aggregation assay)
Format: cell-based
Conditions: 1 μM compound
Procedure: (A). Cell-based model of Tau inclusion formation: Six month old rTg4510 mouse brain lysates were used as the source of tau seeds, prepared as described in Example 26 above. P301L-Tau-FL-GFP HEK293 cells represent HEK293 cells express full-length human tau T40 (2N4R) carrying the P301L mutation with a GFP tag (P301L-Tau-FL-GFP). 1×10^6 of P301L-Tau-FL-GFP HEK293 cells were cultured on a 6-well plate in culture medium containing DMEM/F-12 (Gibco) supplemented with 10% fetal bovine serum (FBS) (Gibco), 1% Penicillin-Streptomycin (Gibco) and 0.5 mg/ml geneticin (Thermo Fisher Scientific) for 24 hours to reach 70-90% confluency, indicating the cells were ready for transfection. 50 μg of 6-month-old rTg4510 mouse brain lysate was diluted in 400 μL of serum free medium and mixed with 16 μL of lipofectamine 3000 reagent (Thermo Fisher Scientific) diluted in 400 μl of serum free medium. A solution mixture of rTg4510 brain lysate and lipofectamine 3000 was incubated at room temperature for 25 mins. The culture media were removed, and then a solution mixture of rTg4510 lysate and lipofectamine 3000 was added to the cells for transfection. The solution mixture was incubated at room temperature for five hours, followed by medium change to 10% fetal bovine serum (FBS). […]

Chain of Tau aggregates in P301L-Tau-FL-GFP HEK293 cells (P10636 other isoform, or with tags, fused parts or gaps P301L): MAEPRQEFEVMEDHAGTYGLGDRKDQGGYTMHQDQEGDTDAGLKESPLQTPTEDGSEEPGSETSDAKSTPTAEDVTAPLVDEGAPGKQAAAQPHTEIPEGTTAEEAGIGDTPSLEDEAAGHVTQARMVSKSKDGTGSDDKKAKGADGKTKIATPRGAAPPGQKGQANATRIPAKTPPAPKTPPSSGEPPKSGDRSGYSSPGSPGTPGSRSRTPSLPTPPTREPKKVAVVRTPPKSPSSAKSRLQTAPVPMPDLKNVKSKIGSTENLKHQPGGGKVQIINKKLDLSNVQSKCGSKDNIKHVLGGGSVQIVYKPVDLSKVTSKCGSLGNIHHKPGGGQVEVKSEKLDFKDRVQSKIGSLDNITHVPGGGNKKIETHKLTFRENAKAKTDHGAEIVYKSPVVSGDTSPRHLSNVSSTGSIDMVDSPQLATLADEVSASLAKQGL

Optical Density (O.D.) 450 value decrease compared to vehicle: 20%
Compound: CN(C)c1ccc(-c2ccc(-c3cn4cccc(OCCOCCOc5ccc6c(c5)CN(C5CCC(=O)NC5=O)C6=O)c4n3)cc2)cn1 (stereo not shown) [Compound 162842]
